# Reference: patent US11365192B2, “Pyridine compound substituted with azole” (TAISHO PHARMACEUTICAL CO., LTD., priority 2017, dated 2022)
# pIC50: −log10 of the molar value.
# Experiments:
# [1] = molecular target: human CYP4F2 (Homo sapiens (Human), UniProt P78329); assay: Inhibition test against 20-HETE producing enzyme CYP4F2 (luciferine derivative, luminescence); assay type: biochemical
# In short: (§1)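 E. coli membranes (100 μg/mL protein) expressing human enzyme, room temperature 60 min, luciferin-derivative luminescence; IC50 from % inhibition. CYP4F2: 50 mM KPO4 pH 7.4, 2.5 μM substrate, 1 mM NADPH. CYP4A11: 100 mM Tris-HCl pH 7.5, 60 μM substrate, NADP+/glucose 6-phosphate/G6PDH regenerating system, 3.3 mM MgCl2.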
# [2] = molecular target: human CYP4A11 (Homo sapiens (Human), UniProt Q02928); assay: Inhibition test against 20-HETE producing enzyme CYP4A11 (luciferine derivative, luminescence); assay type: biochemical
# human CYP4A11, sequence (Q02928 5-519): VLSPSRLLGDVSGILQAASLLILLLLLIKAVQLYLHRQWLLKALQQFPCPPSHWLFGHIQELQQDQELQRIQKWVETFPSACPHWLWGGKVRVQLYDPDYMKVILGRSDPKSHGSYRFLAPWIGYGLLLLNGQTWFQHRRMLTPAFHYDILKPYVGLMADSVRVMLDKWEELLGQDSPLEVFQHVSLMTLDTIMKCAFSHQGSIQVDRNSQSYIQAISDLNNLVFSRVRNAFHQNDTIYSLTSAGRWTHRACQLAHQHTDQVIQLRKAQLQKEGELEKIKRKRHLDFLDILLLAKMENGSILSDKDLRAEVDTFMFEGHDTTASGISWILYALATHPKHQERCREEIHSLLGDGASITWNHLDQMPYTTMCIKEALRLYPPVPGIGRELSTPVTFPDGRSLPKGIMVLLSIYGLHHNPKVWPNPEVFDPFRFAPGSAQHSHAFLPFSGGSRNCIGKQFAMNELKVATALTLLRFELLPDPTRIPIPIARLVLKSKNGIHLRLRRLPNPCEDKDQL
# In short: as §1
# [3] = human CYP4F2, luciferine derivative, luminescence
# [4] = human CYP4A11, luciferine derivative, luminescence
# [5] = E. coli membrane fraction expressing human CYP4F2, 2.5 μM luciferine derivative, room temperature 60 minutes
# [6] = E. coli membrane fraction expressing human CYP4A11, 60 μM luciferine derivative, room temperature 60 minutes
# human CYP4F2, sequence (P78329 5-520): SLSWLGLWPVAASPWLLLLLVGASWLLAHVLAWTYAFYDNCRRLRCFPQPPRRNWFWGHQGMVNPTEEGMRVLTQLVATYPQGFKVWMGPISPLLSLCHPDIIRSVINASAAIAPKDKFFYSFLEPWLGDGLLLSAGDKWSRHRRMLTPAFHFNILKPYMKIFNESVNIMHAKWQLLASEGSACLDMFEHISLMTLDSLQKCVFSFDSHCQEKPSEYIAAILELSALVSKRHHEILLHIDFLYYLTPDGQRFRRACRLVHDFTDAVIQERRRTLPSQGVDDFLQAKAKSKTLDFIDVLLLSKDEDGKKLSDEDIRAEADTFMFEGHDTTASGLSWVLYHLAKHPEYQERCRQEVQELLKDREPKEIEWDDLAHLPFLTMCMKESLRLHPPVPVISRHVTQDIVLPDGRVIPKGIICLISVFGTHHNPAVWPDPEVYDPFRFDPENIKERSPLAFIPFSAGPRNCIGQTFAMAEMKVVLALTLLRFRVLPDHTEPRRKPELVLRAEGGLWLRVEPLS
"pIC50 [1, 3]","pIC50 [2, 4]","pIC50 [1, 5]","pIC50 [2, 6]",Compound
5.57,7.51,,,CS(=O)(=O)NC(=O)CCc1cccc(COc2ccc(-c3ccn[nH]3)nc2)c1 [Example 44-5]
7.35,6.64,,,CN(C(=O)CCc1cccc(COc2ccc(-c3ccn[nH]3)nc2)c1)S(C)(=O)=O [Example 44-6]
7.07,5.42,,,"NC(=O)c1cc(COc2ccc(-c3ccn[nH]3)nc2)ccn1 [Example 44-7, 4-[[6-(1H-Pyrazol-5-yl)-3-pyridinyl]oxymethyl]-2-pyridinecarboxamide]"
5.12,6.92,,,"O=C(O)CCNC(=O)c1cccc(COc2ccc(-c3ccn[nH]3)nc2)c1 [Example 45-1, 3-[[Oxo-[3-[[6-(1H-pyrazol-5-yl)-3-pyridinyl]oxymethyl]phenyl]methyl]amino]propanoic Acid]"
5.49,6.82,,,CN(CCC(=O)O)C(=O)c1cccc(COc2ccc(-c3ccn[nH]3)nc2)c1 [Example 45-2]
5.21,7.04,,,CC(C)(CNC(=O)c1cccc(COc2ccc(-c3ccn[nH]3)nc2)c1)C(=O)O [Example 45-3]
5.19,7.07,,,O=C(NCC1(C(=O)O)CC1)c1cccc(COc2ccc(-c3ccn[nH]3)nc2)c1 [Example 45-4]
6.12,7.13,,,O=C(NCC1(C(=O)O)CCCC1)c1cccc(COc2ccc(-c3ccn[nH]3)nc2)c1 [Example 45-5]
5.35,6.60,,,O=C(NCC1(C(=O)O)CCOCC1)c1cccc(COc2ccc(-c3ccn[nH]3)nc2)c1 [Example 45-6]
5.54,6.11,,,O=C(O)C[C@H](NC(=O)c1cccc(COc2ccc(-c3ccn[nH]3)nc2)c1)c1ccccc1 [Example 45-7]
5.72,6.89,,,O=C(O)C[C@@H](NC(=O)c1cccc(COc2ccc(-c3ccn[nH]3)nc2)c1)c1ccccc1 [Example 45-8]
5.32,7.09,,,C[C@H](NC(=O)c1cccc(COc2ccc(-c3ccn[nH]3)nc2)c1)C(=O)O [Example 45-9]
5.00,6.74,,,C[C@@H](NC(=O)c1cccc(COc2ccc(-c3ccn[nH]3)nc2)c1)C(=O)O [Example 45-10]
5.92,7.64,,,O=C(N[C@@H](Cc1ccccc1)C(=O)O)c1cccc(COc2ccc(-c3ccn[nH]3)nc2)c1 [Example 45-11]
6.05,6.66,,,O=C(N[C@H](Cc1ccccc1)C(=O)O)c1cccc(COc2ccc(-c3ccn[nH]3)nc2)c1 [Example 45-12]
5.17,6.62,,,O=C(NC1(C(=O)O)CCOCC1)c1cccc(COc2ccc(-c3ccn[nH]3)nc2)c1 [Example 45-13]
6.39,7.29,,,CC(C)(CCNC(=O)c1cccc(COc2ccc(-c3ccn[nH]3)nc2)c1)C(=O)O [Example 45-14]
6.74,5.92,,,CC(C)(CCNC(=O)c1cc(COc2ccc(-c3ccn[nH]3)nc2)ccn1)C(=O)O [Example 45-15]
5.47,6.92,,,CC(C)(CCNC(=O)c1cccc(COc2ccc(-c3ccn[nH]3)nc2)n1)C(=O)O [Example 45-16]
6.00,6.29,,,CC(C)(CCNC(=O)c1cncc(COc2ccc(-c3ccn[nH]3)nc2)c1)C(=O)O [Example 45-17]
6.57,6.36,,,CN(CCC(C)(C)C(=O)O)C(=O)c1cccc(COc2ccc(-c3ccn[nH]3)nc2)c1 [Example 45-18]
4.89,6.00,,,O=C(N[C@H]1CC[C@@H](C(=O)O)CC1)c1cccc(COc2ccc(-c3ccn[nH]3)nc2)c1 [Example 45-19]
5.68,6.39,,,O=C(N[C@H]1CC[C@H](C(=O)O)CC1)c1cccc(COc2ccc(-c3ccn[nH]3)nc2)c1 [Example 45-20]
5.21,6.24,,,O=C(N[C@H]1C[C@@H](C(=O)O)C1)c1cccc(COc2ccc(-c3ccn[nH]3)nc2)c1 [Example 45-21]
5.55,7.01,,,O=C(N[C@H]1C[C@H](C(=O)O)C1)c1cccc(COc2ccc(-c3ccn[nH]3)nc2)c1 [Example 45-22]
5.41,6.15,,,O=C(NC12CC(C(=O)O)(C1)C2)c1cccc(COc2ccc(-c3ccn[nH]3)nc2)c1 [Example 45-23]
6.08,7.25,,,O=C(O)c1ccc(CNC(=O)c2cccc(COc3ccc(-c4ccn[nH]4)nc3)c2)cc1 [Example 45-24]
6.43,7.40,,,O=C(O)c1cccc(CNC(=O)c2cccc(COc3ccc(-c4ccn[nH]4)nc3)c2)c1 [Example 45-25]

"pIC50 [1, 3]","pIC50 [2, 4]","pIC50 [1, 5]","pIC50 [2, 6]",Compound
6.06,7.51,,,O=C(NCc1ccccc1C(=O)O)c1cccc(COc2ccc(-c3ccn[nH]3)nc2)c1 [Example 45-26]
5.66,6.29,,,O=C(O)C1CCN(C(=O)c2cccc(COc3ccc(-c4ccn[nH]4)nc3)c2)CC1 [Example 45-27]
5.43,6.57,,,O=C(O)[C@@H]1CCCN(C(=O)c2cccc(COc3ccc(-c4ccn[nH]4)nc3)c2)C1 [Example 45-28]
5.31,6.77,,,O=C(O)[C@H]1CCCN(C(=O)c2cccc(COc3ccc(-c4ccn[nH]4)nc3)c2)C1 [Example 45-29]
5.40,6.54,,,O=C(O)CC1CCN(C(=O)c2cccc(COc3ccc(-c4ccn[nH]4)nc3)c2)CC1 [Example 45-30]
5.60,6.43,,,O=C(O)CC1CCCN(C(=O)c2cccc(COc3ccc(-c4ccn[nH]4)nc3)c2)C1 (stereo not drawn) [Example 45-31]
5.17,6.18,,,O=C(O)CC1CCCCN1C(=O)c1cccc(COc2ccc(-c3ccn[nH]3)nc2)c1 (stereo not drawn) [Example 45-32]
4.77,6.66,,,O=C(O)[C@@H]1CCCN1C(=O)c1cccc(COc2ccc(-c3ccn[nH]3)nc2)c1 [Example 45-34]
4.89,5.49,,,O=C(O)[C@H]1CCCN1C(=O)c1cccc(COc2ccc(-c3ccn[nH]3)nc2)c1 [Example 45-35]
5.96,6.64,,,O=C(O)C1CCN(C(=O)c2cccc(COc3ccc(-c4ccn[nH]4)nc3)c2)C1 (stereo not drawn) [Example 45-36]
6.14,6.92,,,O=C(c1cccc(COc2ccc(-c3ccn[nH]3)nc2)c1)N1CCC(F)(C(=O)O)C1 (stereo not drawn) [Example 45-37]
6.52,6.51,,,O=C(c1cc(COc2ccc(-c3ccn[nH]3)nc2)ccn1)N1CCC(F)(C(=O)O)C1 (stereo not drawn) [Example 45-38]
5.85,6.33,,,O=C(O)C[C@H]1CCN(C(=O)c2cccc(COc3ccc(-c4ccn[nH]4)nc3)c2)C1 [Example 45-39]
5.85,6.39,,,O=C(O)C[C@@H]1CCN(C(=O)c2cccc(COc3ccc(-c4ccn[nH]4)nc3)c2)C1 [Example 45-40]
5.74,6.70,,,O=C(O)CC1CN(C(=O)c2cccc(COc3ccc(-c4ccn[nH]4)nc3)c2)C1 [Example 45-41]
7.47,6.35,,,O=C(O)c1nc2c(o1)CN(C(=O)c1cccc(COc3ccc(-c4ccn[nH]4)nc3)c1)C2 [Example 45-42]
5.28,5.77,,,O=C(O)c1ncc2c(n1)CN(C(=O)c1cccc(COc3ccc(-c4ccn[nH]4)nc3)c1)C2 [Example 45-43]
5.46,6.96,,,O=C(O)c1cnn2c1CN(C(=O)c1cccc(COc3ccc(-c4ccn[nH]4)nc3)c1)CC2 [Example 45-44]
5.80,5.77,,,O=C(O)c1cc2n(n1)CCN(C(=O)c1cccc(COc3ccc(-c4ccn[nH]4)nc3)c1)C2 [Example 45-45]
7.27,6.80,,,O=C(O)c1nc2c(o1)CCN(C(=O)c1cccc(COc3ccc(-c4ccn[nH]4)nc3)c1)C2 [Example 45-46]
,,5.12,5.49,"CC(C)(CC(=O)N1CCC(COc2ccc(-c3ccn[nH]3)nc2)CC1)C(=O)O [Example 46-1, 2,2-Dimethyl-4-oxo-4-[4 [[6-(1H-pyrazol-5-yl)-3-pyridinyl]oxymethyl]-1-piperidinyl]butanoic Acid]"
,,6.33,6.14,O=C(CCC12CC(C(=O)O)(C1)C2)N1CCC[C@@H](COc2ccc(-c3ccn[nH]3)nc2)C1 [Example 46-2]
,,< 4.30,5.82,O=C(O)C12CC(C(=O)N3CCC[C@@H](COc4ccc(-c5ccn[nH]5)nc4)C3)(C1)C2 [Example 46-3]
,,4.74,6.00,O=C(O)C12CCC(C(=O)N3CCC[C@@H](COc4ccc(-c5ccn[nH]5)nc4)C3)(CC1)CC2 [Example 46-4]
,,5.12,6.55,O=C(O)c1cccc(CC(=O)N2CCC[C@@H](COc3ccc(-c4ccn[nH]4)nc3)C2)c1 [Example 46-5]
,,6.82,6.08,"O=C(CCCC1(C(=O)O)CCCC1)N1CCC(COc2ccc(-c3ccn[nH]3)nc2)CC1 [Example 47-1, 1-[4-Oxo-4-[4-[[6-(1H-pyrazol-5-yl)-3-pyridinyl]oxymethyl]-1-piperidinyl]butyl]-1-cyclopentanecarboxylic Acid]"
,,4.96,6.21,"O=C(O)CCC(=O)N1CCC(COc2ccc(-c3ccn[nH]3)nc2)CC1 [Example 48-1, 4-Oxo-4-[4-[[6-(1H-pyrazol-5-yl)-3-pyridinyl]oxymethyl]-1-piperidinyl]butanoic Acid]"

Compound,"pIC50 [1, 3]","pIC50 [2, 4]","pIC50 [1, 5]","pIC50 [2, 6]"
O=C(O)C1CC2CCC(C1)N2C(=O)c1cccc(COc2ccc(-c3ccn[nH]3)nc2)c1 (stereo not drawn) [Example 45-33],4.72,5.70,,
O=C(NCc1cc(O)no1)c1cccc(COc2ccc(-c3ccn[nH]3)nc2)c1 [Example 45-47],,,6.01,6.72
